US7629468B2 (Janssen Pharmaceutica NV, priority 2003, dated 2009)

Assays:
[1] = target: T1, cloned rat mGluR1 receptor (Rattus norvegicus, UniProt P23385); test: Signal transduction at the cloned rat mGluR1 receptor in CHO cells (glutamate-induced intracellular Ca2+ rise, FLIPR); format: cell-based
T1 construct: expressed in transfected cells; host or cells: CHO cells
Experimental: Pharmacological Example Signal Transduction at the Cloned Rat mGluR1 Receptor in CHO Cells
CHO cells expressing the mGluR1 receptor were plated in precoated black 96-well plates. […] The cells were loaded with Fluo-3 AM, plates were incubated for 1 hour at room temperature in the dark, cells were washed and the present compounds were added onto the cells for 20 minutes. […] Relative fluorescence units were recorded and average data graphs of quadruple wells were obtained.

[2] = test system: rats with a Bennett ligation; test: Cold allodynia test in rats with a Bennett ligation (cold plate testing); format: in vivo, rat; conditions: male SD rats, IP, dose of 2.5 mg/kg bodyweight, retested after 60 minutes, cold plate 0.0 °C
Experimental: Cold Allodynia Test in Rats with a Bennett Ligation
Male SD rats, weighing 240-280 g at the time of surgery were used.
For surgery, the animals were anaesthetised with Thalamonal (1 ml; subcutane) and sodium pentobarbital (40 mg/kg; intraperitoneal (IP)). The common sciatic nerve of the left hindpaw was exposed at the level of the middle of the thigh by blunt dissection through the biceps femoris. Proximal to the sciatic's trifurcation, about 7 mm of nerve was freed and four loose ligatures with 4.0 chromic gut were placed around the sciatic nerve. Great care was taken to tie the ligatures such that the diameter of the nerve was barely constricted. After surgery, the animals received 1.25 mg/kg naloxone IP.
Cold plate testing was performed on a metal plate of 30×30 cm with transparent acrylic walls around it. The cold plate was cooled to 0.0 (±0.5)° C. using a Julabo F25 cooler. For testing, the animal was placed on the cold plate and the duration of lifting of both the left and the right hindpaw was measured during 5 minutes. The difference in lifting time between the ligated and non-ligated paw was calculated.
At least one week after the operation, animals were placed on the cold plate test and a pre-drug measurement was taken. […] The results obtained during the post drug test were expressed as a percentage of those of the predrug test. […]

T1 sequence (P23385 19-1199): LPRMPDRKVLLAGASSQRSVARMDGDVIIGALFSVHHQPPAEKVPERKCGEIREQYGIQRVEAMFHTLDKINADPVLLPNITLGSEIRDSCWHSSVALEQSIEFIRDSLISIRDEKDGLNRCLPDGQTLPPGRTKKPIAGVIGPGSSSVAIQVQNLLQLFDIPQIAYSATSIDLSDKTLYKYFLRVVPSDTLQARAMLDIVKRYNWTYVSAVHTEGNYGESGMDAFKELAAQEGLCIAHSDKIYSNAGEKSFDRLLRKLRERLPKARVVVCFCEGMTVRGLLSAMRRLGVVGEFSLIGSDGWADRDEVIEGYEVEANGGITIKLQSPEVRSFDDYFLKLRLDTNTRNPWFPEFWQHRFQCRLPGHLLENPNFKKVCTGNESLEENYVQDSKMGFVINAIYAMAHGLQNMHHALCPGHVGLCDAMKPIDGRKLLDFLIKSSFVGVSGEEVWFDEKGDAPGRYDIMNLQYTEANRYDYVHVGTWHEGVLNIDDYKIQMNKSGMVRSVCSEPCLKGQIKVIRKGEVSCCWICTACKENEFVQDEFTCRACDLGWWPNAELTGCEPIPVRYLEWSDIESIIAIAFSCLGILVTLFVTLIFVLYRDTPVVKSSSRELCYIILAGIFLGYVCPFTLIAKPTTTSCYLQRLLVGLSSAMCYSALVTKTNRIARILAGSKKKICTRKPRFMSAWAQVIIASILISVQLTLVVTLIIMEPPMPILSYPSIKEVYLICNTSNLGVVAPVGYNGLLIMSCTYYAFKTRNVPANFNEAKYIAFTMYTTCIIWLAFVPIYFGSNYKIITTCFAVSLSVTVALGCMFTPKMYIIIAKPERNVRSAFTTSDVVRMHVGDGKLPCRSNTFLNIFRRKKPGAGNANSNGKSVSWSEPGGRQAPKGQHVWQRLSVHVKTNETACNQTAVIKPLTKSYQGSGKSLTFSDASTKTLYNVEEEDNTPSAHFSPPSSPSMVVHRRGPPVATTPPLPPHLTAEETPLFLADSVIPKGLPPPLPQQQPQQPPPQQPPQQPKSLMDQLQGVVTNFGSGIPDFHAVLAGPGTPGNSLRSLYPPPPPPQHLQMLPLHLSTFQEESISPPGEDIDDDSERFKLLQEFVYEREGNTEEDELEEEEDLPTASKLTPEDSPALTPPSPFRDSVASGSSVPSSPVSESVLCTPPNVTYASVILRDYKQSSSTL

Row | IC50 [1] [nM] | melting point [°C] | Compound | other results
1 | 26.9 |  | O=C(Cc1ccsc1)c1ccc2nc3c(cc2c1)CCCS3 [Compound 464] | 
2 | 77.6 |  | CO[C@H]1CC[C@@H](C(=O)c2ccc3nc4c(cc3c2)CCCCC4)CC1 [Compound 426] | 
3 |  | 110 | CCc1cc2cc(C(=O)C3CCC(OC)CC3)ccc2nc1I (centres unmarked) [Compound 21] | 
4 | 23.4 |  | CCc1cc2cc(C(=O)Cc3ccsc3)ccc2nc1C [Compound 299] | 

More lines, now with the values behind:

Row | Compound | IC50 [1] [nM] | melting point [°C] | other results
5 | CCc1cc2cc(C(=O)C3CCC(OC)CC3)ccc2nc1C (centres unmarked) [Compound 27] |  |  | all or none criterion on difference in lifting time between ligated and non-ligated paw, post-drug as percentage of pre-drug [2]: antagonism
6 | CCc1cc2cc(C(=O)C3CCC(OC)CC3)ccc2nc1C#N (centres unmarked) [Compound 22] |  | 138 | 
7 | CCc1cc2cc(C(=O)C3CCC(OC)CC3)ccc2nc1C#CCO (centres unmarked) [Compound 18] |  | 113 | 
8 | CCc1cc2cc(C(=O)[C@H]3CC[C@@H](OC)CC3)ccc2nc1COC(C)=O [Compound 348] | 89.1 |  | 
